Data on five molecules can be found in DBAASP.

Molecules are shown by their SMILES. Converted amounts (≈) assume the structure as drawn. “And” between values parts separate entries of the source, which are not always exact repeats. Equal entries are not always repeated.

Holding throughout (test): ≥ marks a high value that may be exact or a test limit, other limits are often not marked, values filed in µg/mL are converted to µM
Assay [1] has as its system Klebsiella pneumoniae ATCC BAA-1705.
In assay [2] the test system is Candida albicans ATCC 90028.
For assay [3], the system named is Staphylococcus aureus B038 V1S1A.
Assay [4] relates to Staphylococcus aureus ATCC 43300.
Assay [5] deals with Staphylococcus aureus.
Assay [6] relates to Escherichia coli ATCC BAA-2340.
Assay [7] deals with Pseudomonas aeruginosa ATCC 9027.
Assay [8] concerns Klebsiella pneumoniae ATCC 43816.
For assay [9], the system named is Candida albicans ATCC 10231.
Assay [10] deals with Staphylococcus aureus ATCC 6538.
Assay [11] deals with Enterococcus faecalis NCTC 12697.
The subject of assay [12] is Staphylococcus aureus ATCC 12493.
In assay [13] the test system is Aeromonas salmonicida NCIMB 1102.
In assay [14] the test system is Shewanella putrefaciens IAM 1509.
Assay [15] has as its system Salmonella typhimurium.
Assay [16] relates to Escherichia coli JCM 1649.
For assay [17], the system named is Bacillus subtilis IAM 1026.
For assay [18], the system named is Vibrio parahaemolyticus Vp+1.
Assay [19] deals with Vibrio anguillarum NCIMB 829.
Assay [20] concerns Staphylococcus aureus IAM 1011.
Assay [21] concerns Photobacterium damselae subsp. piscicida Sp 9587.
Assay [22] relates to Enterobacter cloacae NHTCC 53001.
Assay [23] relates to Klebsiella pneumoniae KK3 9904.
Assay [24] deals with Escherichia coli ATCC 25922.
Assay [25] has as its system Pseudomonas aeruginosa ATCC 27853.
Assay [26] relates to Staphylococcus aureus NCTC 8325.
The test system of assay [27] is Klebsiella pneumoniae CIP 52.145.
In assay [28] the test system is Staphylococcus aureus CIP 53.156.
Assay [29] relates to Bacillus megaterium CIP 51.17.
The subject of assay [30] is Aeromonas salmonicida CIP 103209T.
For assay [31], the system named is Escherichia coli CIP 54.8.
Assay [32] relates to Pseudomonas aeruginosa CIP A22.
The test system of assay [33] is Vibrio aestuarianus CIP 109791T.
The subject of assay [34] is Vibrio splendidus LGP-32.
Assay [35] deals with Enterococcus faecalis CIP 76.117.
In assay [36] the test system is Listeria monocytogenes LME, Caen.
For assay [37], the system named is Salmonella typhimurium LME, Caen.
Assay [38] has as its system Vibrio alginolyticus IFREMER.
The subject of assay [39] is Vibrio splendidus SATMAR.
Assay [40] deals with Vibrio vulnificus CIP 109783.
Assay [41] relates to Vibrio splendidus IFREMER.
The subject of assay [42] is Vibrio aestuarianus IFREMER.
The test system of assay [43] is Escherichia coli IFO 3301.
Assay [44] concerns Bacillus subtilis IFO 3336.

For `CC[C@H](C)[C@H](NC(=O)[C@H](CCCCN)NC(=O)[C@@H](NC(=O)[C@H](CO)NC(=O)[C@H](CC(N)=O)NC(=O)[C@H](Cc1c[nH]c2ccccc12)NC(=O)[C@H](CC(C)C)NC(=O)CN)[C@@H](C)CC)C(=O)N[C@@H](C)C(=O)NCC(=O)N[C@@H](CCCCN)C(=O)N[C@@H](CCCCN)C(=O)N[C@@H](CC(C)C)C(=O)N[C@@H](Cc1ccccc1)C(=O)N[C@H](C(=O)N[C@@H](CC(N)=O)C(=O)N[C@H](C(=O)N[C@@H](CC(C)C)C(=O)N[C@@H](CC(=O)O)C(=O)N[C@@H](CCCCN)C(=O)N[C@H](C(=O)N[C@@H](CCCN=C(N)N)C(=O)N[C@H]1CSSC[C@@H](C(=O)O)NC(=O)CNC(=O)CNC(=O)[C@H](C)NC(=O)[C@H](C(C)C)NC(=O)[C@H](CCCCN)NC1=O)[C@@H](C)CC)C(C)C)C(C)C` [GLWNSIKIAGKKLFVNVLDKIRCKVAGGC], the MIC in [1] is 4 µM (≈ 12.5 µg/mL); in assay [2] it was no less than 100 µM; in assay [3] it was 2 µM (≈ 6.26 µg/mL); in assay [4], 12.5 µM (≈ 39.1 µg/mL); in [5] it was 4 µM (≈ 12.5 µg/mL); in assay [6], 2 µM (≈ 6.26 µg/mL). Besides, the minimum inhibitory concentration (MIC) in [7] is 16 µM (≈ 50.1 µg/mL); in assay [8], 8 µM (≈ 25 µg/mL); in [9], 128 µM (≈ 401 µg/mL); in assay [10] it was 1.6 µM and 4 µM; in assay [11], 16 µM (≈ 50.1 µg/mL); in assay [12], 8 µM (≈ 25 µg/mL).
On to `CC[C@H](C)[C@H](NC(=O)[C@H](C)NC(=O)CNC(=O)[C@@H](NC(=O)[C@@H](NC(=O)[C@H](CCC(N)=O)NC(=O)[C@@H]1CCCN1C(=O)[C@@H](NC(=O)[C@H](C)NC(=O)CNC(=O)[C@@H](NC(=O)[C@@H](NC(=O)[C@H](Cc1cnc[nH]1)NC(=O)[C@@H]1CCCN1C(=O)[C@H](CC(C)C)NC(=O)[C@H](CC(C)C)NC(=O)[C@@H]1CCCN1C(=O)[C@@H](NC(=O)[C@H](CC(C)C)NC(=O)[C@H](Cc1ccccc1)NC(=O)CNC(=O)[C@H](Cc1ccccc1)NC(=O)[C@@H](N)CC(C)C)[C@@H](C)CC)[C@@H](C)CC)[C@@H](C)CC)[C@@H](C)CC)C(C)C)[C@@H](C)CC)C(=O)N[C@@H](CCCN=C(N)N)C(=O)O` [LFGFLIPLLPHIIGAIPQVIGAIR], for which the MIC came to 19.5 µM (≈ 50 µg/mL) in assay [13]; 2.43 µM (≈ 6.25 µg/mL) in assay [14]; 19.5 µM (≈ 50 µg/mL) in assay [15]; 19.5 µM (≈ 50 µg/mL) in [16]; 4.87 µM (≈ 12.5 µg/mL) in assay [17]; 9.73 µM (≈ 25 µg/mL) in assay [18]. In addition, the minimum inhibitory concentration (MIC) in assay [19] stood at 9.73 µM (≈ 25 µg/mL); in [20] it was 2.43 µM (≈ 6.25 µg/mL); in [21] it was 2.43 µM (≈ 6.25 µg/mL).
As for `CC[C@H](C)[C@H](NC(=O)[C@H](Cc1cnc[nH]1)NC(=O)[C@H](CCCCN)NC(=O)CNC(=O)[C@H](C)NC(=O)[C@@H](NC(=O)[C@H](CCCCN)NC(=O)[C@H](CC(C)C)NC(=O)[C@@H](NC(=O)CNC(=O)[C@H](CCCN=C(N)N)NC(=O)[C@H](Cc1ccccc1)NC(=O)[C@H](CC(C)C)NC(=O)[C@H](CO)NC(=O)[C@H](CCSC)NC(=O)[C@H](CC(C)C)NC(=O)CN)C(C)C)[C@@H](C)O)C(=O)N[C@@H](Cc1ccccc1)C(=O)N[C@@H](CCCCN)C(=O)N[C@@H](CC(N)=O)C(=O)N[C@H](C(=O)NCC(=O)NCC(=O)N[C@@H](CO)C(=O)N[C@@H](CC(C)C)C(=O)N[C@@H](CC(C)C)C(=O)N[C@@H](CC(=O)O)C(=O)N[C@@H](CCC(N)=O)C(=O)N[C@@H](C)C(=O)N[C@@H](CCCCN)C(=O)N[C@H]1CSSC[C@@H](C(=O)O)NC(=O)[C@H](CCC(=O)O)NC(=O)CNC(=O)[C@H]([C@@H](C)O)NC(=O)[C@H]([C@@H](C)CC)NC(=O)[C@H](CCCCN)NC1=O)C(C)C` [GLMSLFRGVLKTAGKHIFKNVGGSLLDQAKCKITGEC], the MIC in [22] was 6 µM (≈ 23.5 µg/mL); in assay [2], no less than 100 µM; in [23], 6 µM (≈ 23.5 µg/mL); in [24], 3 µM (≈ 11.8 µg/mL); in assay [25], 3 µM (≈ 11.8 µg/mL); in assay [26], 25 µM (≈ 98 µg/mL).
Take `CC(C)C[C@H](NC(=O)CNC(=O)[C@H](Cc1ccccc1)NC(=O)[C@H](Cc1ccccc1)NC(=O)[C@H](CC(C)C)NC(=O)CNC(=O)[C@H](Cc1ccccc1)NC(=O)[C@H](CC(C)C)NC(=O)[C@@H]1CCCN1C(=O)[C@H](CCCCN)NC(=O)[C@H](CCCCN)NC(=O)[C@H](CCCCN)NC(=O)[C@@H](N)CCCCN)C(=O)N[C@@H](Cc1ccccc1)C(=O)O` [KKKKPLFGLFFGLF]: the MIC in assay [27] was no less than 33.9 µM; in assay [28], 8.47 µM (≈ 14.1 µg/mL); in assay [29], 4.23 µM (≈ 7.07 µg/mL); in assay [30] it was 14.1 µM (≈ 23.6 µg/mL); in [31], 4.23 µM (≈ 7.07 µg/mL); in assay [32] it was no less than 33.9 µM. Further, the minimum inhibitory concentration (MIC) in assay [33] is 14.1 µM (≈ 23.6 µg/mL); in [34], 24.5 µM (≈ 40.9 µg/mL); in assay [35], no less than 67.7 µM; in assay [36] it was 16.9 µM (≈ 28.3 µg/mL); in assay [37], no less than 33.9 µM; in assay [38], 4.23 µM (≈ 7.07 µg/mL). Besides, the MIC in [39] is 14.1 µM (≈ 23.6 µg/mL); in [40], no less than 50 µM; in assay [41] it was 8.47 µM (≈ 14.1 µg/mL); in assay [42], 4.23 µM (≈ 7.07 µg/mL).
On to `NCCCC[C@H](NC(=O)[C@H](Cc1cnc[nH]1)NC(=O)[C@H](CCCCN)NC(=O)[C@H](Cc1cnc[nH]1)NC(=O)[C@H](CCCCN)NC(=O)[C@H](Cc1cnc[nH]1)NC(=O)[C@H](CCCCN)NC(=O)[C@H](Cc1cnc[nH]1)NC(=O)[C@@H](N)CCCCN)C(=O)N[C@@H](Cc1cnc[nH]1)C(=O)O` [KHKHKHKHKH], for which the minimum inhibitory concentration (MIC) in [43] and in [44] was 7.44 µM (≈ 10 µg/mL) throughout.
